Counter-ions that a name gives are not always drawn. Like-named read-outs stand apart in the source and are kept apart here.
System: iCell cardiomyocytes (human iPSC-derived cardiomyocytes)
Test: High-content imaging of cytotoxicity and mitochondrial integrity in iPSC-CMs
Type: cell-based
Settings: Homo sapiens; for viability at 0.01 µM / activity at 0.01 µM / viability at 0.1 µM / activity at 0.1 µM / viability at 1 µM / activity at 1 µM / viability at 10 µM / activity at 10 µM / viability at 100 µM / activity at 100 µM: Cardiomyocyte, 0.00 µM = 100.00; for viability at 0.1 µM / activity at 0.1 µM: 0.10 µM; for minimal effective concentration: iPSC-CM
How it was run: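 This assay measured cytotoxicity and mitochondrial integrity in iPSC cardiomyocytes held in 40μL maintenance medium. After compound exposure, a 2× staining solution with Hoechst 33342 (4μg/mL) and MitoTracker™ Orange (0.4μM) was applied for 15 min at 37°C. Cells were washed, fixed with 3.7% formaldehyde, imaged on DAPI and Cy3 channels, and scored in MetaXpress®.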

[1] = 1.5 h, read-out: cm.cam.90min POD
[2] = 1.5 h, read-out: cm.mii.90min POD
[3] = 1.5 h, read-out: cm.mito.90min POD
[4] = 1.5 h, read-out: cm.tc.90min POD
[5] = 24 h, read-out: cm.cam.24hrs POD
[6] = 24 h, read-out: cm.mii.24hrs POD
[7] = 24 h, read-out: cm.mito.24hrs POD
[8] = 24 h, read-out: cm.tc.24hrs POD

For `O=S(=O)(O)Oc1cc(-c2ccccc2)ccc1Cl` [3-yl PCB 3 sulfate], the viability at 0.01 µM (1.5 h, read-out: cm.cam.90min) was 100%, the activity at 0.01 µM (1.5 h, read-out: cm.mii.90min) was 110% and the activity at 0.01 µM (1.5 h, read-out: cm.mito.90min) was 100%. It also gave a viability at 0.01 µM (1.5 h, read-out: cm.tc.90min) of 101%, a viability at 0.1 µM (1.5 h, read-out: cm.cam.90min) of 97.4% and an activity at 0.1 µM (1.5 h, read-out: cm.mii.90min) of 109%. The activity at 0.1 µM (1.5 h, read-out: cm.mito.90min) was 97.4%, the viability at 0.1 µM (1.5 h, read-out: cm.tc.90min) was 97.6% and the viability at 1 µM (1.5 h, read-out: cm.cam.90min) was 104%. It also gave an activity at 1 µM (1.5 h, read-out: cm.mii.90min) of 106%, an activity at 1 µM (1.5 h, read-out: cm.mito.90min) of 104% and a viability at 1 µM (1.5 h, read-out: cm.tc.90min) of 104%. For the same compound, the viability at 10 µM (1.5 h, read-out: cm.cam.90min) was 106%, the activity at 10 µM (1.5 h, read-out: cm.mii.90min) was 98.4% and the activity at 10 µM (1.5 h, read-out: cm.mito.90min) was 106%. For the same compound, the viability at 10 µM (1.5 h, read-out: cm.tc.90min) was 106%, the viability at 100 µM (1.5 h, read-out: cm.cam.90min) was 104% and the activity at 100 µM (1.5 h, read-out: cm.mii.90min) was 108%. It also gave an activity at 100 µM (1.5 h, read-out: cm.mito.90min) of 104%, a viability at 100 µM (1.5 h, read-out: cm.tc.90min) of 104% and a viability at 0.01 µM (24 h, read-out: cm.cam.24hrs) of 87.7%. It also gave an activity at 0.01 µM (24 h, read-out: cm.mii.24hrs) of 113%, an activity at 0.01 µM (24 h, read-out: cm.mito.24hrs) of 86% and a viability at 0.01 µM (24 h, read-out: cm.tc.24hrs) of 88.2%. For the same compound, the viability at 0.1 µM (24 h, read-out: cm.cam.24hrs) was 99.9%, the activity at 0.1 µM (24 h, read-out: cm.mii.24hrs) was 109% and the activity at 0.1 µM (24 h, read-out: cm.mito.24hrs) was 99.5%. The viability at 0.1 µM (24 h, read-out: cm.tc.24hrs) was 101%, the viability at 1 µM (24 h, read-out: cm.cam.24hrs) was 96.5% and the activity at 1 µM (24 h, read-out: cm.mii.24hrs) was 102%. For the same compound, the activity at 1 µM (24 h, read-out: cm.mito.24hrs) was 93.7%, the viability at 1 µM (24 h, read-out: cm.tc.24hrs) was 96.4% and the viability at 10 µM (24 h, read-out: cm.cam.24hrs) was 91.9%. The activity at 10 µM (24 h, read-out: cm.mii.24hrs) was 89.9%, the activity at 10 µM (24 h, read-out: cm.mito.24hrs) was 88.6% and the viability at 10 µM (24 h, read-out: cm.tc.24hrs) was 92.3%. It also gave a viability at 100 µM (24 h, read-out: cm.cam.24hrs) of 96.9%, an activity at 100 µM (24 h, read-out: cm.mii.24hrs) of 83.9% and an activity at 100 µM (24 h, read-out: cm.mito.24hrs) of 97.6%. It also gave a viability at 100 µM (24 h, read-out: cm.tc.24hrs) of 97.8%, a minimal effective concentration [1] of 100 µM and a minimal effective concentration [2] of 100 µM. For the same compound, the minimal effective concentration [3] was 100 µM, the minimal effective concentration [4] was 100 µM and the minimal effective concentration [5] was 100 µM. For the same compound, the minimal effective concentration [6] was 22.8 µM, the minimal effective concentration [7] was 100 µM and the minimal effective concentration [8] was 100 µM.
Compound `Oc1ccc(-c2ccc(Cl)cc2)cc1` [4'-OH PCB3] has a viability at 0.01 µM (1.5 h, read-out: cm.cam.90min) of 98.1%, an activity at 0.01 µM (1.5 h, read-out: cm.mii.90min) of 97% and an activity at 0.01 µM (1.5 h, read-out: cm.mito.90min) of 98.1%. For the same compound, the viability at 0.01 µM (1.5 h, read-out: cm.tc.90min) was 98.1%, the viability at 0.1 µM (1.5 h, read-out: cm.cam.90min) was 101% and the activity at 0.1 µM (1.5 h, read-out: cm.mii.90min) was 100%. It also gave an activity at 0.1 µM (1.5 h, read-out: cm.mito.90min) of 101%, a viability at 0.1 µM (1.5 h, read-out: cm.tc.90min) of 102% and a viability at 1 µM (1.5 h, read-out: cm.cam.90min) of 100%. The activity at 1 µM (1.5 h, read-out: cm.mii.90min) was 98.2%, the activity at 1 µM (1.5 h, read-out: cm.mito.90min) was 100% and the viability at 1 µM (1.5 h, read-out: cm.tc.90min) was 100%. For the same compound, the viability at 10 µM (1.5 h, read-out: cm.cam.90min) was 98%, the activity at 10 µM (1.5 h, read-out: cm.mii.90min) was 98.5% and the activity at 10 µM (1.5 h, read-out: cm.mito.90min) was 97.9%. It also gave a viability at 10 µM (1.5 h, read-out: cm.tc.90min) of 97.9%, a viability at 100 µM (1.5 h, read-out: cm.cam.90min) of 0% and an activity at 100 µM (1.5 h, read-out: cm.mii.90min) of 0%. For the same compound, the activity at 100 µM (1.5 h, read-out: cm.mito.90min) was 0%, the viability at 100 µM (1.5 h, read-out: cm.tc.90min) was 0.0231% and the viability at 0.01 µM (24 h, read-out: cm.cam.24hrs) was 98.2%. For the same compound, the activity at 0.01 µM (24 h, read-out: cm.mii.24hrs) was 96.5%, the activity at 0.01 µM (24 h, read-out: cm.mito.24hrs) was 95.9% and the viability at 0.01 µM (24 h, read-out: cm.tc.24hrs) was 98.1%. It also gave a viability at 0.1 µM (24 h, read-out: cm.cam.24hrs) of 99.2%, an activity at 0.1 µM (24 h, read-out: cm.mii.24hrs) of 99.8% and an activity at 0.1 µM (24 h, read-out: cm.mito.24hrs) of 97.4%. It also gave a viability at 0.1 µM (24 h, read-out: cm.tc.24hrs) of 99%, a viability at 1 µM (24 h, read-out: cm.cam.24hrs) of 104% and an activity at 1 µM (24 h, read-out: cm.mii.24hrs) of 106%. The activity at 1 µM (24 h, read-out: cm.mito.24hrs) was 103%, the viability at 1 µM (24 h, read-out: cm.tc.24hrs) was 105% and the viability at 10 µM (24 h, read-out: cm.cam.24hrs) was 102%. The activity at 10 µM (24 h, read-out: cm.mii.24hrs) was 93.5%, the activity at 10 µM (24 h, read-out: cm.mito.24hrs) was 103% and the viability at 10 µM (24 h, read-out: cm.tc.24hrs) was 102%. It also gave a viability at 100 µM (24 h, read-out: cm.cam.24hrs) of 0.07%, an activity at 100 µM (24 h, read-out: cm.mii.24hrs) of 9.32% and an activity at 100 µM (24 h, read-out: cm.mito.24hrs) of 0.05%. The viability at 100 µM (24 h, read-out: cm.tc.24hrs) was 0.07%, the minimal effective concentration [1] was 12.4 µM and the minimal effective concentration [2] was 16 µM. For the same compound, the minimal effective concentration [3] was 11.5 µM, the minimal effective concentration [4] was 11.3 µM and the minimal effective concentration [5] was 32.3 µM. It also gave a minimal effective concentration [6] of 15.4 µM, a minimal effective concentration [7] of 37.2 µM and a minimal effective concentration [8] of 38.4 µM.
Work on `COc1ccc(-c2cccc(Cl)c2)cc1Cl` [4-OMe PCB11] yielded a viability at 0.01 µM (1.5 h, read-out: cm.cam.90min) of 89.1%, an activity at 0.01 µM (1.5 h, read-out: cm.mii.90min) of 112% and an activity at 0.01 µM (1.5 h, read-out: cm.mito.90min) of 87.5%. For the same compound, the viability at 0.01 µM (1.5 h, read-out: cm.tc.90min) was 89.6%, the viability at 0.1 µM (1.5 h, read-out: cm.cam.90min) was 101% and the activity at 0.1 µM (1.5 h, read-out: cm.mii.90min) was 93.8%. For the same compound, the activity at 0.1 µM (1.5 h, read-out: cm.mito.90min) was 101%, the viability at 0.1 µM (1.5 h, read-out: cm.tc.90min) was 101% and the viability at 1 µM (1.5 h, read-out: cm.cam.90min) was 96.5%. It also gave an activity at 1 µM (1.5 h, read-out: cm.mii.90min) of 94.7%, an activity at 1 µM (1.5 h, read-out: cm.mito.90min) of 96.6% and a viability at 1 µM (1.5 h, read-out: cm.tc.90min) of 96.7%. The viability at 10 µM (1.5 h, read-out: cm.cam.90min) was 99.9%, the activity at 10 µM (1.5 h, read-out: cm.mii.90min) was 109% and the activity at 10 µM (1.5 h, read-out: cm.mito.90min) was 100%. The viability at 10 µM (1.5 h, read-out: cm.tc.90min) was 100%, the viability at 100 µM (1.5 h, read-out: cm.cam.90min) was 3.43% and the activity at 100 µM (1.5 h, read-out: cm.mii.90min) was 74.3%. For the same compound, the activity at 100 µM (1.5 h, read-out: cm.mito.90min) was 2.03%, the viability at 100 µM (1.5 h, read-out: cm.tc.90min) was 3.76% and the viability at 0.01 µM (24 h, read-out: cm.cam.24hrs) was 95.2%. It also gave an activity at 0.01 µM (24 h, read-out: cm.mii.24hrs) of 95.8%, an activity at 0.01 µM (24 h, read-out: cm.mito.24hrs) of 97.8% and a viability at 0.01 µM (24 h, read-out: cm.tc.24hrs) of 97.4%. For the same compound, the viability at 0.1 µM (24 h, read-out: cm.cam.24hrs) was 102%, the activity at 0.1 µM (24 h, read-out: cm.mii.24hrs) was 88.6% and the activity at 0.1 µM (24 h, read-out: cm.mito.24hrs) was 104%. The viability at 0.1 µM (24 h, read-out: cm.tc.24hrs) was 103%, the viability at 1 µM (24 h, read-out: cm.cam.24hrs) was 95.3% and the activity at 1 µM (24 h, read-out: cm.mii.24hrs) was 107%. It also gave an activity at 1 µM (24 h, read-out: cm.mito.24hrs) of 93.6%, a viability at 1 µM (24 h, read-out: cm.tc.24hrs) of 95.6% and a viability at 10 µM (24 h, read-out: cm.cam.24hrs) of 102%. For the same compound, the activity at 10 µM (24 h, read-out: cm.mii.24hrs) was 85.8%, the activity at 10 µM (24 h, read-out: cm.mito.24hrs) was 103% and the viability at 10 µM (24 h, read-out: cm.tc.24hrs) was 103%. For the same compound, the viability at 100 µM (24 h, read-out: cm.cam.24hrs) was 2.29%, the activity at 100 µM (24 h, read-out: cm.mii.24hrs) was 34.1% and the activity at 100 µM (24 h, read-out: cm.mito.24hrs) was 0.46%. It also gave a viability at 100 µM (24 h, read-out: cm.tc.24hrs) of 2.4%, a minimal effective concentration [1] of 33.8 µM and a minimal effective concentration [2] of 62.2 µM. It also gave a minimal effective concentration [3] of 29.1 µM, a minimal effective concentration [4] of 28.6 µM and a minimal effective concentration [5] of 37.2 µM. For the same compound, the minimal effective concentration [6] was 10.8 µM, the minimal effective concentration [7] was 31.1 µM and the minimal effective concentration [8] was 33.4 µM.
